Reference: patent US10363284B2, “β-hairpin peptidomimetics” (POLYPHOR AG, priority 2012, dated 2019)
Read-outs that look alike come from different tables or passages of the source. Positions of bridges follow the written chain, without caps; N, C: chain ends. Non-standard residues stand in square brackets, D forms with d. Residues, ends and D or L forms follow the SMILES beside them. dLys(iPr) = CC(C)NCCCC[C@@H](N)C(=O)O; Lys(iPr) = CC(C)NCCCC[C@H](N)C(=O)O; Orn(iPr) = CC(C)NCCC[C@H](N)C(=O)O; Ac3c = NC1(C(=O)O)CC1

Assays:
Plasma protein binding = assay type: in vitro ADME; conditions: human
Experimental: 495 μL aliquots of human plasma (Basler Blutspendedienst) as well as 495 μL aliquots of PBS were placed in individual deepwells of a polypropylene plate (Greiner) and spiked each with 5 μL of 1 mM solutions of peptides in 90% DMSO. After shaking the plate for 2 min at 600 rpm 150 μL aliquots of the plasma/peptide mixtures were transferred in triplicates to the polypropylene filter plate (10 kDa, Millipore) whereas 150 μL aliquots of the PBS/peptide mixtures were transferred either to the individual wells of the filter plate (filtered controls) or directly into the individual wells of the receiving plate (Greiner) (non-filtered controls). The plate sandwich consisting of filter and receiving plate was incubated for 1 h at 37° C. and subsequently centrifuged at 3220 g for 2 h at 15° C. The filtrates in the receiving plate were analysed by LC/MS as follows: Column: Waters, XBridge C18, mobile phases: (A) water+0.1% formic acid and (B) acetonitrile/water, 95/5 (v/v)+0.1% formic acid, gradient: 5%-100% (B) in 1.8 minutes, electrospray ionization, MRM detection (triple quadrupole). The peak areas were determined and triplicate values are averaged. The binding is expressed in percent of the filtered and non-filtered controls by 100−(100×T1h/Tctr). Finally the average of these values is calculated.

[1] = Plasma stability, mouse plasma; assay type: in vitro ADME; conditions: for mouse pl. T1/2: 37° C.; for remaining at 24 h, 10 μM: 1440 min, read-out: mouse pl. cpd left at 1440 min
Experimental: (§1) The stability of the peptides in human and mouse plasma was determined by applying the following method: 346.5 μL/deep well of freshly thawed human plasma (Basler Blutspende-dienst) and mouse plasma (Harlan Sera-Lab, UK), respectively, were spiked with 3.5 μL/well of compound dissolved in DMSO/H2O (90/10 [v/v], 1 mM, triplicate) and incubated at 37° C. At t=0, 15, 30, 60, 120, 240 and 1440 min aliquots of 50 μL were transferred to filtration plate wells containing 150 μL/well of 2% formic acid in acetonitrile. Following shaking for 2 min the occurred suspensions were filtrated by vacuum. 100 μL of each filtrate were transferred to a propylene microtiter plate and dried under N2. The residual solids were reconstituted by adding 100 μL/well of water/acetonitrile, 95/5 (v/v)+0.2% formic acid and analyzed by LC/MS as follows: Column: Waters, XBridge C18, mobile phases: (A) water+0.1% formic acid and (B) acetonitrile/water, 95/5 (v/v)+0.1% formic acid, gradient: 5%-100% (B) in 1.8 minutes, electrospray ionization, MRM detection (triple quadrupole). The peak areas were determined and triplicate values are averaged. The stability is expressed in percent of the initial value at t=0. (tx/t0×100). By using the TREND function of EXCEL (Microsoft Office 2003) T1/2 were determined.

CXCR4 receptor = biological target: T1, CXCR4 receptor (Homo sapiens, UniProt P61073); experiment: Chemotactic assay (cell migration assay), Namalwa cells, SDF-1 gradient; assay type: cell-based
T1 construct: CXCR4 natively expressing non-adherent cells; endogenous in cells; host or cells: Namalwa cells (ATCC CRL-1432)
T1 sequence (P61073 whole entry): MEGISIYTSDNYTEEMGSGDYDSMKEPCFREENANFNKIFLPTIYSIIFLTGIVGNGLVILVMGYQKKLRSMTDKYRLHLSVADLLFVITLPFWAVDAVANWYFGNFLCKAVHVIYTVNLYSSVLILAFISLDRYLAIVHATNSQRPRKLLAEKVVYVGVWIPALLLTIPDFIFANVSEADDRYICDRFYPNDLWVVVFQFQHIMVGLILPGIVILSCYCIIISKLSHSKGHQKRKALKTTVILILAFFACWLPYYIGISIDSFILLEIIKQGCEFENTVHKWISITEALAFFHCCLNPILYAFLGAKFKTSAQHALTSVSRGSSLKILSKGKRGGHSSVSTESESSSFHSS
Experimental: Namalwa cells (CXCR4 natively expressing non-adherent cells, ATCC CRL-1432) were cultured in RPM11640 plus 10% FBS, and pen/strept. HELA cells were maintained in RPMI1640 plus 10% FBS, pen/strept and 2 mM L-glutamine. Cos-7 cells were grown in DMEM medium with […] glucose supplemented with 10% FCS, pen/strept and 2 mM L-glutamine. All cell lines were grown at 37° C. at 5% CO2. Cell media, media supplements, PBS-buffer, HEPES, antibiotic/antimycotic, pen/strept, non essential amino acid, L-glutamine, β-mercaptoethanol and sera were purchased from Gibco (Pailsey, UK). All fine chemicals were supplied by Merck (Darmstadt, Germany).
The chemotactic response of Namalwa cells (ATCC CRL-1432) to a gradient of stromal cell-derived factor 1α (SDF-1) was measured using a modified Boyden chamber chemotaxis system (ChemoTx; Neuroprobe). […] Migrated cells were transferred using a “funnel” adaptor to a receiving 96-well plate and the cell number was determined by using the CyQuant™ NF cell proliferation assay (Invitrogen) based on the measurement of cellular DNA content via fluorescent dye binding. […] After incubation for 0.5 h at room temperature the plate was sealed and the fluorescence intensity of each sample was measured by using a Wallac 1420 VICTOR^2™ plate reader (PerkinElmer) with excitation at 485 nm and emission detection at 535 nm. […]

[2] = Plasma stability, human plasma; assay type: in vitro ADME; conditions: for human pl. T1/2: 37° C.; for remaining at 24 h, 10 μM: 1440 min, read-out: human pl. cpd left at 1440 min
Experimental: as §1

[3] = test system: human red blood cells (hRBC); assay type: cell-based; conditions: red cells of human, 1 h
Experimental: The peptides were tested for their hemolytic activity against human red blood cells (hRBC). Fresh hRBC were washed four times with phosphate buffered saline (PBS) and centrifuged for 10 min at 3000×g. Compounds (100 μM) were incubated with 20% hRBC (v/v) for 1 h at 37° C. and shaking at 300 rpm. The final erythrocyte concentration was approximately 0.9×10^9 cells/mL. A value of 0% and 100% cell lysis, respectively, was determined by incubation of hRBC in the presence of PBS containing 0.001% acetic acid and 2.5% Triton X-100 in H2O, respectively. The samples were centrifuged, the supernatants were 8-fold diluted in PBS buffer and the optical densities (OD) were measured at 540 nm. The 100% lyses value (OD540H2O) gave an OD540 of approximately 0.5-1.0.
Percent hemolysis was calculated as follows: (OD540peptide/OD540H2O)×100%.

[4] = read-out: Plasma protein binding (converted)

SMILES | fraction unbound at 1 h, 10 μM (Plasma protein binding; read-out: Fraction unbound, fu) | fraction unbound at 1 h, 10 μM (Plasma protein binding; [4]) | mouse pl. T1/2 [1] | remaining at 24 h, 10 μM [1] | IC50 (CXCR4 receptor) | human pl. T1/2 [2] | remaining at 24 h, 10 μM [2] | Hemolysis at 100 μM [3]
CC(C)NCCCC[C@@H]1NC(=O)[C@H](CCC(N)=O)NC(=O)[C@H](Cc2ccc(O)cc2)NC(=O)[C@@H]2CSSC[C@H](NC(=O)[C@H](Cc3ccc(O)cc3)NC(=O)[C@H](Cc3c[nH]cn3)NC(=O)[C@H](Cc3ccc(O)cc3)NC(=O)[C@@H]3CCCN3C(=O)[C@@H](CCCCNC(C)C)NC1=O)C(=O)N[C@@H](CO)C(=O)N[C@@H](C)C(=O)N1CCC[C@@H]1C(=O)N[C@@H](CCCNC(C)C)C(=O)N[C@@H](CCCNC(=N)N)C(=O)N[C@@H](Cc1ccc(O)cc1)C(=O)N2 [Ex. 1, cyclo(-Tyr^1-His^2-Tyr^3-Cys^4-Ser^5-Ala^6-^DPro^7-Orn(iPr)^8-Arg^9-Tyr^10-Cys^11-Tyr^12-Gln^13-Lys(iPr)^14-^DLys(iPr)^15-Pro^16-), disulfide bond between Cys^4 and Cys^11] (cyclo(A[dP][Orn(iPr)]RYCYQ[Lys(iPr)][dLys(iPr)]PYHYCS); disulfide 6-15) | 0.45 | 0.45 | 24 h | 100% | 170 ± 100 pM | 24 h | 100% | 1.0%
CC(C)NCCCC[C@@H]1NC(=O)[C@H](CCC(N)=O)NC(=O)[C@H](Cc2ccc(O)cc2)NC(=O)[C@@H]2CSSC[C@H](NC(=O)[C@H](Cc3ccc(O)cc3)NC(=O)[C@H](Cc3c[nH]cn3)NC(=O)[C@H](Cc3ccc(O)cc3)NC(=O)[C@@H]3CCCN3C(=O)[C@H]3CCCN3C1=O)C(=O)N[C@@H](CO)C(=O)NC1(CC1)C(=O)N1CCC[C@@H]1C(=O)N[C@@H](CCCNC(C)C)C(=O)N[C@@H](CCCNC(=N)N)C(=O)N[C@@H](Cc1ccc(O)cc1)C(=O)N2 [Ex. 2, cyclo(-Tyr^1-His^2-Tyr^3-Cys^4-Ser^5-Acc^6-^DPro^7-Orn(iPr)^8-Arg^9-Tyr^10-Cys^11-Tyr^12-Gln^13-Lys(iPr)^14-^DPro^15-Pro^16-), disulfide bond between Cys^4 and Cys^11] (cyclo(YHYCS[Ac3c][dP][Orn(iPr)]RYCYQ[Lys(iPr)][dP]P); disulfide 4-11) | 0.57 | 0.57 | 24 h | 100% | 320 ± 100 pM | 24 h | 87% | 1.0%
